Results: patent US9610294B2, “Methods and compositions for the treatment of fluid accumulation in and/or under the retina” (UNIVERSITE PARIS DESCARTES, priority 2010, dated 2017)
Entries after “also recorded” stand apart in the source; their conditions may differ.

Tests used:
GFAP = GFAP immunostaining of retinas from aldosterone-injected eyes (glial activation); assay type: in vivo, Lewis rats; settings: intravitreous injection, vs sham-injected retinas
Procedure: Anesthesia of rats was induced by intramuscular injection of ketamine (100 mg/kg, Virbac, Carros, France) and chlorpromazine (0.65 mg/kg, LARGACTIL®, Sanofi Aventis, Livron sur Drome, France). Intravitreous injections were performed using microfine (300 μl) syringes with 30 G needles under topical anesthesia (tetracaine 1%, Aldrich, Lyon, France). Rat eyes were injected with 5 μl aldosterone diluted in 0.9% saline to obtain a concentration of 200 nM for injection, corresponding to a final concentration of 20 nM in the vitreous. Control rat eyes were injected with 5 μl saline. Twenty-four hrs after injection, rats were sacrificed. Eyes were then removed for retinal flat mounting, immunohistochemistry and morphological analysis respectively.
Eyes were fixed for 15 min in 4% paraformaldehyde (PFA, LADD, Inland Europe, Conflans-sur-Lanterne, France). After washing, retinas were isolated, cut by 4 orthogonal incisions and post-fixed with acetone 100% at −20° C. for 15 min. They were then rehydrated with phosphate-buffered saline (PBS) containing 1% Triton X-I00, and incubated with a polyclonal rabbit antibody against AQP4 (1:100) or a polyclonal rabbit antibody against glial fibrillary acidic protein (GF AP, 1:100, Dako, Trappes, France) at room temperature under stirring overnight. […]

AQP4 = AQP4 expression (real-time PCR, western blot) in rat RMG primary cultures and retinal explants; assay type: cell-based
Procedure: Rat RMG cells were obtained as described (deKozak, Y., Naud, M. C., Bellot, J., Faure, J. P., and Hicks, D. (1994) Differential tumor necrosis factor expression by resident retinal cells from experimental uveitis-susceptible and -resistant rat strains. J Neuroimmunol 55, 1-9). Briefly, rats at postnatal (PN) day 17 (when RMG cells are mature) were sacrificed and eyes enucleated. Intact eyeballs were maintained in DMEM overnight at room temperature in the dark, and then incubated 45 min with 2 mg/ml trypsin/collagenase I at 37° C. The neural retinas were separated from the lens and vitreous, cut into small fragments and plated in Petri dishes containing DMEM supplemented with 10% FCS, 100 units/ml penicillin, 100 µg/ml streptomycin, and 0.2% amphotericin B. Cultures were maintained at 37° C. in a humidified atmosphere containing 5% CO2. After 5 to 6 days, the cultures were washed extensively with medium so that only a strongly adherent flat cell population remained.
Müller cells were seeded in 6-well tissue culture plates (Becton Dickinson, Le Pont de Claix, France). Rat PN17 RMG cells were maintained in their initial Petri dishes. Sub confluent (80%) cells were incubated in media supplemented with 10% steroid-free (charcoal treated) FCS for 24 hrs. Corticosteroid (Sigma-Aldrich, Saint Quentin Fallavier, France) treatments were then applied respectively for a further 24 hrs: 10 nM aldosterone, 10 nM aldosterone plus 1).IM RU38486 (GR-specific antagonist), 10 nM aldosterone plus 1 µM RU26752 (MR-specific antagonist) or 1 µM dexamethasone. The steroids were previously dissolved in 2% steroid-free FCS media containing 0.1% ethanol. Control cells were treated with 0.1% ethanol in media.
After enucleation, rat retinas were isolated immediately under aseptic conditions and cut into 4 pieces. They were then transferred onto a Cyclopore 0.2).Im polycarbonate membrane (Whatman, Maidstone, England), and flatmounted with the vitreal side up. The support membranes were placed in 6-well tissue culture plates containing 2 ml DMEM supplemented with 10% steroid-free FCS, 1% penicillin-streptomycin and 0.1% amphotericin B. Explants were treated with corticosteroids as described for cultured cells. Similarly, the dose-dependent effect of aldosterone (0.1-100 nM) was analyzed on retinal explants in separate experiments.
Total RNA was isolated from the treated RMG cells and retinal explants using RNeasy Mini Kit (Qiagen, Courtaboeuf, France). First-strand cDNA was synthesized after DNase I (Qiagen) treatment using random primers (Invitrogen) and superscript II reverse transcriptase (Invitrogen). Transcript levels of ENaC-a, Kir4.1 and AQP4 were analyzed by real-time PCR performed in 7500 Real-Time PCR System (Applied Biosystems, Foster City, Calif., USA) with either TaqMan® (Applied Biosystems) or SYBR® Green (Invitrogen, Cergy Pontoise, France) detection. The 18S was used as internal control.
Retinal explants were homogenized in Np40 buffer in the presence of protease inhibitors. The protein concentration was determined by the Bradford method. Equal amounts of protein (12 .ug) were separated on Novex® 4%-12% Tris-Glycine gel (Invitrogen), transferred to nitrocellulose, and the blots were incubated with primary antibodies at 4° C. overnight. The membranes were washed, incubated with horse radish peroxidase conjugated goat anti-rabbit IgG (1:3000, Vector, AbCys, Paris, France) for 1 hr at room temperature, and developed using ECL Plus western blotting detection reagents (GE healthcare, Orsay, France). The j3-actin was used as internal control. The following primary antibodies were used: rabbit anti-alpha ENaC (1:500, Abcam, Cambridge, Mass., USA), rabbit anti-Kir4.1 (1:400, Alomone Labs, Jerusalem, Israel), rabbit anti-AQP4 (1:750, Millipore, St Quentin en Yvelines, France) and rabbit anti-j3-actin (1:1000, Abcam)

With `C[C@]12CCC(=O)C=C1CC[C@@H]1[C@@H]2[C@@H](O)C[C@]2(C=O)[C@@H](C(=O)CO)CC[C@@H]12` [aldosterone] the “glial (RMG) activation, GFAP distribution” value (GFAP) was “enhances glial activation; also recorded: strong activation of RMG”, the “AQP4 mRNA expression” value (AQP4; 24 hrs treatment, RMG primary cultures or retinal explants) was “increase” and the “aquaporin 4 (AQP4) up-regulation” value (AQP4; aldosterone 24 hrs) was 2.9 fold. The “aldosterone concentration at which increase in AQP4 mRNA is saturated” value (AQP4; dose-dependent effect, retinal explants) was 10 nM, the “expression of aquaporin 4 (AQP4)” value (AQP4; normal rat, 24 hours exposure, low aldosterone dose (1-10 nM)) was “enhances the expression” and the “AQP4 expression at the protein level” value (AQP4; western blot) was “increases”.
